The values that follow come from paper PMC6128612, “Prodrugs for colon-restricted delivery: Design, synthesis, and in vivo evaluation of colony stimulating factor 1 receptor (CSF1R) inhibitors” (PLoS ONE, 2018).

For series [1], the system named is IBA1+ macrophages in the colon. As to the kind of experiment: Mouse DSS model of colitis: colon macrophages by image analysis. The series is classed as in vivo. To be noted: 100 mg/kg QD day 7–14. The protocol: (§1) On day 0, super prophylactic dosing of compound 2 began on C57BL/6 female mice. […] At this time compound 3 dosing initiated. […] Statistical analyses of in-vivo pharmacodynamic and efficacy data were performed as follows. D'Agostino & Pearson normality test was first used to test data for Gaussian distribution. If all groups passed normality test, a One-way ANOVA was used with Dunnett’s multiple comparisons test to compare treatment groups to Vehicle group. If not all groups passed normality test, a Kruskal-Wallis nonparametric ANOVA was used, with Dunn’s multiple comparison test to compare treatment groups to Vehicle group. Levels of significance compared to Vehicle are annotated as follows: * = p<0.05, ** = p<0.01, *** = p<0.001, **** = p < 0.0001. Optimal number of mice per group was determined using power analysis; N = 10 mice per group at 80% power predicts statistically significant detection of ≥ ~40% reduction in colon IBA1+ and ≥ ~75% reduction in colon erosion length comparing treatment groups to Vehicle group. Naïve groups were omitted from statistical analyses.

Series [2] deals with CD11b+ CD11c+ MHCII- nonclassical monocytes. Briefly: Mouse DSS model of colitis: circulating non-classical monocytes by FACS. Format: in vivo. The note with it: 100 mg/kg QD day 7–14. The protocol: as §1
(A flow cytometer gives signals particle by particle.)

The next series relates to rheumatoid arthritis. The arrangement: method as in PMID 26233509. The note with it: DMARD-refractory active RA patients; cited from earlier work.
Another series concerns murine colitis. The arrangement: method as in earlier work. The note with it: cited from earlier work.
The target of another series is CSF1R (Homo sapiens, UniProt P07333). As to the kind of experiment: CSF1R enzyme activity (TR-FRET binding displacement, kinase panel). As for the experimental part: TR-FRET-based binding displacement studies using active site probes were used to assess kinome selectivity of inhibitor molecules.[54] The concentrations of components for each purified kinase were based on optimized conditions with ranges as follows: kinases (1.25–12.5 nM), Oregon Green-labeled fluorescent probes (2x KD of probe to the particular kinase; range of 1–200 nM; in-house), terbium anti-His or anti-GST antibody (0.5–2 nM). The reaction buffer was diluted to 1x using ddH2O and contained 1 mM DTT.
Sequence of CSF1R (P07333 20-972): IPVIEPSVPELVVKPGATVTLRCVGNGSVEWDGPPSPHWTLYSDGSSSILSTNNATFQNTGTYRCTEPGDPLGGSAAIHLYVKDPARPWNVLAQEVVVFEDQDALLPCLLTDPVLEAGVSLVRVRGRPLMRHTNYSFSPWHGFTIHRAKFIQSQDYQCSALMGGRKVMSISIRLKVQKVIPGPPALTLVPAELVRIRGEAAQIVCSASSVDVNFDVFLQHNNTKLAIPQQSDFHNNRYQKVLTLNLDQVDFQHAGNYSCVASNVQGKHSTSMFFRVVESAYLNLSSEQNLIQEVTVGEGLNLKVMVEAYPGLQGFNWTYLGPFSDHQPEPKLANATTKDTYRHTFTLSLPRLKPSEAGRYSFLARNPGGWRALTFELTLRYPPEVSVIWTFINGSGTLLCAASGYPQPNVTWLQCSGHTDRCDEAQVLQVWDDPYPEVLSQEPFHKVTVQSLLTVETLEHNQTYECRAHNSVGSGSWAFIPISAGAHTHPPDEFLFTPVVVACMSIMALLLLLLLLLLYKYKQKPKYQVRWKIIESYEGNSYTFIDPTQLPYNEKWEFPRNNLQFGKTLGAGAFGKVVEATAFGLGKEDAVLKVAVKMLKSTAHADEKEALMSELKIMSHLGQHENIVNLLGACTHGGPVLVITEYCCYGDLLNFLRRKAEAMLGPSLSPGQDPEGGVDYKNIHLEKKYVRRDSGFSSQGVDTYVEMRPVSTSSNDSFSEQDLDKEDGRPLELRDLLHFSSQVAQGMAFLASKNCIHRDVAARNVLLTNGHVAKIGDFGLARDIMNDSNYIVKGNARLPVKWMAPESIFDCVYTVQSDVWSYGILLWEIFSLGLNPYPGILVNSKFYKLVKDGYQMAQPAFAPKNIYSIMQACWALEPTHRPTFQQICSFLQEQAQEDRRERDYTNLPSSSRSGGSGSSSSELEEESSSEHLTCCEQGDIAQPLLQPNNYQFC
Compounds were typically tested from 0.0001 to 10 μM in 10x dilutions. Reactions were carried out in a 20 μL volume in 384-well plates by combining kinase, probe, antibody, and test compound and allowing the reaction to come to equilibrium (incubation of 2 h). TR-FRET was then measured on a PerkinElmer Envision plate reader (excitation at 340 nm; emission at 520 and 495 nm). Competition by the test compound versus the fluorescent probe for the ATP binding site of the kinase was quantified by calculating the IC50 value based on a four-parameter logistic curve fit.
(TR-FRET usually uses a lanthanide donor and a delayed reading to cut background.)

The nature of series [3]: Plasma stability in vitro. The series is classed as in vitro ADME, mouse.
Series [4] in a line: PK experiment dosing hemi-succinate 15 IV or PO. The series is classed as in vivo, mouse. To be noted: IV or PO 1 mg/kg; 0.5 to 12 h.

For `CC1(C)CC=C(c2nc(C3CC(C)(C)OC(C)(C)C3)ccc2NC(=O)c2nc(C#N)c[nH]2)CC1` [Compound 3], in series [1], the “Depletion of macrophages (IBA1+) in the colon” value is recorded as 76%. Also, in series [2], the “Depletion of CD11b+ CD11c+ MHCII- nonclassical monocytes” value is reported as 94%. For the same compound, the “Efficacy in Phase II trial” value in the series with rheumatoid arthritis was “lack of efficacy”. Further, the “Clinical and histopathological disease readouts” value in the series on murine colitis is “reduction in clinical and histopathological disease readouts”.
Turning to `O=C(O)CCC(=O)O[C@H]1CC[C@H](n2cc(Nc3nc(C4CCCCC4)cn4ncnc34)cn2)CC1` [Compound 15, 4-(((1r,4r)-4-(4-((6-Cyclohexyl-[1,2,4]triazolo[1,5-a]pyrazin-8-yl)amino)-1H-pyrazol-1-yl)cyclohexyl)oxy)-4-oxobutanoic acid], the “CSF1R enzyme activity inhibition” value at CSF1R is reported as “able to inhibit CSF1R enzyme activity”. The Stability in plasma result in series [3] is recorded as “not stable in mouse plasma in vitro”. Further, the “Plasma levels of 15” value in series [4] is “no detectable plasma levels of 15”.
